Converted amounts (≈) assume the structure as drawn.
What was measured:
[1] = system: C. albicans (ATCC 24433); assay: Anticandidal broth microdilution (EUCAST EDef 7.1), resazurin fluorometric readout; format: cell-based; conditions: Candida albicans, ATCC24433; ATCC 24433, RPMI pH 7, 24 h incubation
Description: (§1) Synthesized compounds (5a-5ad) were evaluated for anticandidal activity against C. albicans (ATCC 24433), C. krusei (ATCC 6258), C. parapsilosis (ATCC 22019) and C. [NT] 90030). MIC50 values were evaluated via fluorometric measurements, using resazurin solution [56, 57]. […] [NT] 90030). MIC readings were carried out twice for each chemical agent. The yeasts were maintained in RPMI after overnight incubation at 37 °C. The inocula of test microorganisms adjusted to match the turbidity of a MacFarland 0.5 standard tube as determined with a spectrophotometer and the final inoculum size was 0.5-2.5 × 10^5 cfu/mL for antifungal assay. Testing was carried out in RPMI at pH = 7 and the two-fold serial dilutions technique was applied. The last well on the microplates containing only inoculated broth was kept as controls and the last well with no growth of microorganism was recorded to represent the MIC50 expressed in μg/mL. For the antifungal assays, the compounds were dissolved in DMSO. […] The completed plates were incubated for 24 h. At the end of the incubation, resazurin (20 μg/mL) was added into each well to control whether the growth in wells. Then, plates were allowed to incubate for 2 h. MIC50 values were determined using a microplate reader at […].

[2] = system: C. glabrata (ATCC 90030); assay: as above; format: cell-based; conditions: Nakaseomyces glabratus, ATCC90030; ATCC 90030, RPMI pH 7, 24 h incubation
Description: as §1

[3] = system: C. krusei (ATCC 6258); assay: as above; format: cell-based; conditions: Pichia kudriavzevii, ATCC6258; ATCC 6258, RPMI pH 7, 24 h incubation
Description: as §1

[4] = system: C. parapsilosis (ATCC 22019); assay: as above; format: cell-based; conditions: Lodderomyces parapsilosis, ATCC22019; ATCC 22019, RPMI pH 7, 24 h incubation; read-out: MIC50 C. parapsilopsis
Description: as §1

[5] = system: Candida species; assay: Anticandidal broth microdilution, results summarised over all strains; format: cell-based; conditions: summary over all four Candida strains; for MIC50: Candida, read-out: MIC50 against Candida species
Description: as §1

SMILES	MIC50 [1]	MIC50 [2]	MIC50 [3]	MIC50 [4]	MIC50 [5]	melting point	anticandidal activity against Candida strains (in words) [5]
CCn1c(SCC(=O)c2ccc(Cl)cc2Cl)nnc1-c1ccc(-c2nc3ccc(Cl)cc3[nH]2)cc1 [Compound 5s, 2-((5-(4-(6-Chloro-1H-benzimidazol-2-yl)phenyl)-4-ethyl-4H-1,2,4-triazol-3-yl)thio)-1-(2,4-dichlorophenyl)ethan-1-one]	1.56 µg/mL (≈ 2.87 µM)	3.12 µg/mL (≈ 5.75 µM)	3.12 µg/mL (≈ 5.75 µM)	1.56 µg/mL (≈ 2.87 µM)	1.56 to 3.12 µg/mL (≈ 2.87 to 5.75 µM)	192 °C	–
Cn1c(SCC(=O)c2ccccc2)nnc1-c1ccc(-c2nc3ccc(F)cc3[nH]2)cc1 [Compound 5u, 2-((5-(4-(6-Fluoro-1H-benzimidazol-2-yl)phenyl)-4-methyl-4H-1,2,4-triazol-3-yl)thio)-1-phenylethan-1-one]	12.5 µg/mL (≈ 28.2 µM)	25 µg/mL (≈ 56.4 µM)	50 µg/mL (≈ 113 µM)	50 µg/mL (≈ 113 µM)	–	277.1 °C	did not show strong activity
CCn1c(SCC(=O)c2ccc(Cl)cc2)nnc1-c1ccc(-c2nc3ccc(Cl)cc3[nH]2)cc1 [Compound 5q, 2-((5-(4-(6-Chloro-1H-benzimidazol-2-yl)phenyl)-4-ethyl-4H-1,2,4-triazol-3-yl)thio)-1-(4-chlorophenyl)ethan-1-one]	6.25 µg/mL (≈ 12.3 µM)	12.5 µg/mL (≈ 24.6 µM)	12.5 µg/mL (≈ 24.6 µM)	12.5 µg/mL (≈ 24.6 µM)	–	252.2 °C	did not show strong activity
CCn1c(SCC(=O)c2ccc(F)cc2F)nnc1-c1ccc(-c2nc3ccccc3[nH]2)cc1 [Compound 5j, 2-((5-(4-(1H-Benzimidazol-2-yl)phenyl)-4-ethyl-4H-1,2,4-triazol-3-yl)thio)-1-(2,4-difluorophenyl)ethan-1-one]	12.5 µg/mL (≈ 26.3 µM)	25 µg/mL (≈ 52.6 µM)	12.5 µg/mL (≈ 26.3 µM)	25 µg/mL (≈ 52.6 µM)	–	238.2 °C	–
Cn1c(SCC(=O)c2ccc(Cl)cc2Cl)nnc1-c1ccc(-c2nc3ccccc3[nH]2)cc1 [Compound 5d, 2-((5-(4-(1H-Benzimidazol-2-yl)phenyl)-4-methyl-4H-1,2,4-triazol-3-yl)thio)-1-(2,4-dichlorophenyl)ethan-1-one]	25 µg/mL (≈ 50.6 µM)	50 µg/mL (≈ 101 µM)	50 µg/mL (≈ 101 µM)	25 µg/mL (≈ 50.6 µM)	–	234.7 °C	–
Cn1c(SCC(=O)c2ccc(Cl)cc2)nnc1-c1ccc(-c2nc3ccc(F)cc3[nH]2)cc1 [Compound 5v, 1-(4-Chlorophenyl)-2-((5-(4-(6-fluoro-1H-benzimidazol-2-yl)phenyl)-4-methyl-4H-1,2,4-triazol-3-yl)thio)ethan-1-one]	12.5 µg/mL (≈ 26.2 µM)	6.25 µg/mL (≈ 13.1 µM)	12.5 µg/mL (≈ 26.2 µM)	12.5 µg/mL (≈ 26.2 µM)	1.56 to 3.12 µg/mL (≈ 3.26 to 6.53 µM)	252.9 °C	did not show strong activity
Cn1c(SCC(=O)c2ccc(Cl)cc2)nnc1-c1ccc(-c2nc3ccc(Cl)cc3[nH]2)cc1 [Compound 5l, 2-((5-(4-(6-Chloro-1H-benzimidazol-2-yl)phenyl)-4-methyl-4H-1,2,4-triazol-3-yl)thio)-1-(4-chlorophenyl)ethan-1-one]	6.25 µg/mL (≈ 12.6 µM)	12.5 µg/mL (≈ 25.3 µM)	6.25 µg/mL (≈ 12.6 µM)	12.5 µg/mL (≈ 25.3 µM)	–	236.9 °C	–
Cn1c(SCC(=O)c2ccc(F)cc2F)nnc1-c1ccc(-c2nc3ccccc3[nH]2)cc1 [Compound 5e, 2-((5-(4-(1H-Benzimidazol-2-yl)phenyl)-4-methyl-4H-1,2,4-triazol-3-yl)thio)-1-(2,4-difluorophenyl)ethan-1-one]	12.5 µg/mL (≈ 27.1 µM)	25 µg/mL (≈ 54.2 µM)	25 µg/mL (≈ 54.2 µM)	25 µg/mL (≈ 54.2 µM)	–	256.2 °C	–
Cn1c(SCC(=O)c2ccc(Cl)cc2Cl)nnc1-c1ccc(-c2nc3ccc(F)cc3[nH]2)cc1 [Compound 5x, 1-(2,4-Dichlorophenyl)-2-((5-(4-(6-fluoro-1H-benzimidazol-2-yl)phenyl)-4-methyl-4H-1,2,4-triazol-3-yl)thio)ethan-1-one]	3.12 µg/mL (≈ 6.09 µM)	1.56 µg/mL (≈ 3.04 µM)	3.12 µg/mL (≈ 6.09 µM)	3.12 µg/mL (≈ 6.09 µM)	–	228.5 °C	–
